Data reported in US6521623B1, “N,N'-disubstituted benzimidazolone derivatives with affinity at the serotonin and dopamine receptors” (Boehringer Ingelheim Pharma KG, priority 2000, dated 2003).

Experiments:
5-HT1A [1] = target: T1, 5-HT1A (Homo sapiens, UniProt P08908); assay: 5-HT1 Functional Assay (cAMP) in CHO/5-HT1A cells; assay type: cell-based; parameters: expressed in transfected cells; host or cells: CHO/5-HT1A cells
T1 sequence (P08908 1-422): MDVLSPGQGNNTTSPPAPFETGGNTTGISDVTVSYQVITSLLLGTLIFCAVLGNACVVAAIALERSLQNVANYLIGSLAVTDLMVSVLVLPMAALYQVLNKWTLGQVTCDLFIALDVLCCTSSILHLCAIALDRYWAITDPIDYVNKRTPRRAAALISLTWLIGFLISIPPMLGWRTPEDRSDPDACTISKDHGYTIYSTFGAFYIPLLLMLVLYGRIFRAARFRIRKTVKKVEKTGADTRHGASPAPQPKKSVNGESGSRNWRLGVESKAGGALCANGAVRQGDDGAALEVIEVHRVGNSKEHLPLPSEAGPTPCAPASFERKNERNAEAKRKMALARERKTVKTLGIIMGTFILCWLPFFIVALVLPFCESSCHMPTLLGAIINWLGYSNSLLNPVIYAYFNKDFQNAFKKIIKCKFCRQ
Experimental: 5-HT1 Functional Assay (cAMP)
CHO/5-HT1A cells were random seeded at a density of about 200,000/well in 24 well plates the day prior to the experiment. On the day of the experiment, cells were pretreated for 15 minutes at 37° C. with 500 μM isobutylmethylxantine (IBMX) dissolved in culture medium without serum. Wells were then divided in different groups in duplicate as follows: control, 10 μM FSK, 10 μM FSK+1 μM 5-HT as positive standard and 10 μM FSK+10 μM of the different compound under evaluation. Sample solutions were added and incubated for additional 15 minutes at 37° C. After incubation, the medium was aspirated and the reaction stopped by adding 200 μl of lysis buffer. Plates were shaken for 5 minutes, then the lysate was removed and samples were stored at 4° C. until the day of the assay. For the cAMP evaluation, samples were properly diluted and the cAMP content was measured by an enzyme immunoassay system.

5-HT1A [2] = target: T1, 5-HT1A; assay: 5HT1A Radioligand Receptor Binding Assay ([3H]-8-OH-DPAT, CHO cell membranes); parameters: expressed in transfected cells; host or cells: CHO cells; settings: CHO membranes, human 5-HT1A; for IC50: [3H]-8-OH-DPAT, read-out: 5-HT1A Receptor Binding IC50; for 5-HT1A Receptor Binding Assay % inhibition (10^−7 M): compound 10^−7 M, singlicate, [3H]-8-OH-DPAT 0.6-0.7 nM
Experimental: 5HT1A Radioligand Receptor Binding Assay
Membranes from CHO cells, expressing 5-HT1A human receptors were suspended in incubation buffer.
Binding assays were performed in MultiProbe 204 pipetting system (Packard), according to a predetermined mapping, consistent with the software Screen. The compounds were tested in singlicate at one concentration (10^−7 M) in a total volume of 1000 μl. 980 μl of diluted membranes, 10 μl DMSO or unlabelled ligand and 10 μl of [^3H]-8-OH-DPAT (0.6-0.7 nM) were incubated for 60 minutes at 27° C. The reaction was stopped by rapid filtration through Tomtec Cell Harvester (48 wells) using Filtermat B (presoaked in 0.1% PEI) filters. Filters were washed with ice-cold 50 mM Tris-HCl (pH 7.4) buffer (9×700 μl), dried, covered with MeltiLex B/HS scintillator sheets (Wallac) and heated at 80° C. to 90° C. for about 10 minutes, transferred into plastic sample bags (Wallac), sealed, and put into 1024 Beta Plate scintillation counter (Wallac). Non-specific binding was determined in the presence of 5-HT (10^−5 M).
The specific radioligand binding to the receptor was defined by the difference between total binding and non-specific binding, determined in the presence of an excess of unlabelled ligand. Results were expressed as percentage of control specific binding obtained in the presence of the compounds. The affinity values (IC50) for the compounds were obtained by a nonlinear least squares regression analysis on the basis of a one binding site model.

D4 human receptors = target: T2, D4 human receptors (Homo sapiens, UniProt P21917); assay: D4 Radioligand Receptor Binding Assay ([3H] YM-09151-2, CHO cell membranes); settings: compound 10^−7 M, singlicate, [3H] YM-09151-2 0.15-0.25 nM
T2 construct: expressed in transfected cells; host or cells: CHO cells
T2 sequence (P21917 1-419): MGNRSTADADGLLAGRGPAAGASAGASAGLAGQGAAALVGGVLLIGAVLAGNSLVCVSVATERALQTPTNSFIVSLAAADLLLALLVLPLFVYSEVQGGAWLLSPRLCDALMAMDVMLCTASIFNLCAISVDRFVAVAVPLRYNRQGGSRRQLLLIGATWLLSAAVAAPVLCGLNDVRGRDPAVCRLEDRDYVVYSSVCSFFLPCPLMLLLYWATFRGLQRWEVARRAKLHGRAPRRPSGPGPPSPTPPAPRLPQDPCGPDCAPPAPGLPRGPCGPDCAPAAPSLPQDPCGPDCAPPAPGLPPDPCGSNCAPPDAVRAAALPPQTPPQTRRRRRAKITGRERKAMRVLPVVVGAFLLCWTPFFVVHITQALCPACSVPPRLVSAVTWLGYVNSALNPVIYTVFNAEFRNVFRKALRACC
Experimental: D4 Radioligand Receptor Binding Assay
Membranes from CHO cells expressing D4 human receptors, were suspended in incubation buffer.
Binding assays were performed in MultiProbe 204 pipetting system (Packard), according to a predetermined mapping, consistent with the software Screen. The compounds were tested in singlicate at one concentration (10^−7 M) in a total volume of 1000 μl (980 μl of diluted membranes, 10 μl DMSO or unlabelled ligand and 10 μl of [^3H] YM-09151-2 (0.15-0.25 nM). After incubation for 120 minutes at 27° C., the reaction was stopped by rapid filtration through Tomtec Cell Harvester (48 wells) using Filtermat B (presoaked in 0.1% PEI) filters. Filters were washed with ice-cold 50 mM Tris-HCl (pH 7.4) buffer (9×700 μl), dried, covered with MeltiLex B/HS (Wallac) scintillator sheets and heated in oven at 80° C. to 90° C. for about 10 minutes, transferred into plastic sample bags (Wallac), sealed, and put into 1024 Beta Plate scintillation counter (Wallac). Non-specific binding was determined in the presence of clozapine dissolved in DMSO to a final concentration of 10^−5 M.
The specific radioligand binding to the receptor was defined by the difference between total binding and non-specific binding, determined in the presence of an excess of unlabelled ligand. Results were expressed as percentage of control specific binding obtained in the presence of the compounds.

CC(=O)NCCn1c(=O)n(C/C=C/CN2CCN(c3cccc(C(F)(F)F)c3)CC2)c2ccccc21 [Compound 481]
inhibition at 10 µM (5-HT1A [1]): 82% | IC50 (5-HT1A [2]): 11 nM

CS(=O)(=O)NCCn1c(=O)n(C/C=C\CN2CCN(c3cccc(Cl)c3)CC2)c2ccccc21 [Compound 499]
inhibition at 10 µM (5-HT1A [1]): 74% | IC50 (5-HT1A [2]): 5 nM

COCCn1c(=O)n(C/C=C/CN2CCN(c3cccc(C(F)(F)F)c3)CC2)c2ccccc21 [Compound 301]
inhibition at 10 µM (5-HT1A [1]): 83% | IC50 (5-HT1A [2]): 2.6 nM

O=c1n(C/C=C/CN2CCN(c3cccc(C(F)(F)F)c3)CC2)c2ccccc2n1CCO [Compound 386]
inhibition at 10 µM (5-HT1A [1]): 82% | IC50 (5-HT1A [2]): 6.7 nM

CS(=O)(=O)NCCn1c(=O)n(C/C=C/CN2CCN(c3cccc(C(F)(F)F)c3)CC2)c2ccccc21 [Compound 525]
inhibition at 10 µM (5-HT1A [1]): 87% | IC50 (5-HT1A [2]): 1.5 nM

CCNC(=O)OCCn1c(=O)n(C/C=C/CN2CCN(c3cccc(C(F)(F)F)c3)CC2)c2ccccc21 [Compound 420]
inhibition at 10 µM (5-HT1A [1]): 87% | IC50 (5-HT1A [2]): 1.8 nM

CCNC(=O)OCCn1c(=O)n(C/C=C\CN2CCN(c3cccc(C(F)(F)F)c3)CC2)c2ccccc21 [Compound 403]
inhibition at 10 µM (5-HT1A [1]): 84% | IC50 (5-HT1A [2]): 5.5 nM

COc1ccccc1N1CCN(CCn2c(=O)n(CCO)c3ccccc32)CC1 [Compound 197]
D4 Receptor Binding Assay % inhibition (10^−7 M) (D4 human receptors): 43% | 5-HT1A Receptor Binding Assay % inhibition (10^−7 M) (5-HT1A [2]): 77%

CCNC(=O)OCCn1c(=O)n(C/C=C/CN2CCN(c3ccccc3)CC2)c2ccccc21 [Compound 412]
D4 Receptor Binding Assay % inhibition (10^−7 M) (D4 human receptors): 39% | 5-HT1A Receptor Binding Assay % inhibition (10^−7 M) (5-HT1A [2]): 93%

CCNC(=O)OCCn1c(=O)n(CCCCN2CCN(c3ccc(Cl)c(Cl)c3)CC2)c2ccccc21 [Compound 85]
D4 Receptor Binding Assay % inhibition (10^−7 M) (D4 human receptors): 79% | 5-HT1A Receptor Binding Assay % inhibition (10^−7 M) (5-HT1A [2]): 77%

O=c1n(CCCCN2CCN(c3ncccn3)CC2)c2ccccc2n1CCN1CCCCC1 [Compound 25]
D4 Receptor Binding Assay % inhibition (10^−7 M) (D4 human receptors): 44% | 5-HT1A Receptor Binding Assay % inhibition (10^−7 M) (5-HT1A [2]): 48%

COCCn1c(=O)n(C/C=C\CN2CCN(c3cccc(C(F)(F)F)c3)CC2)c2ccccc21 [Compound 284]
inhibition at 10 µM (5-HT1A [1]): 82% | IC50 (5-HT1A [2]): 4.9 nM

CCNC(=O)OCCn1c(=O)n(C/C=C\CN2CCN(c3ccccc3)CC2)c2ccccc21 [Compound 395]
D4 Receptor Binding Assay % inhibition (10^−7 M) (D4 human receptors): 32% | 5-HT1A Receptor Binding Assay % inhibition (10^−7 M) (5-HT1A [2]): 86%

CC(=O)NCCn1c(=O)n(CCCCN2CCN(c3ccccc3Cl)CC2)c2ccccc21 [Compound 118]
D4 Receptor Binding Assay % inhibition (10^−7 M) (D4 human receptors): 36% | 5-HT1A Receptor Binding Assay % inhibition (10^−7 M) (5-HT1A [2]): 80%

O=c1n(CCCCN2CCN(c3ccccn3)CC2)c2ccccc2n1CCN1CCCCC1 [Compound 23]
D4 Receptor Binding Assay % inhibition (10^−7 M) (D4 human receptors): 48% | 5-HT1A Receptor Binding Assay % inhibition (10^−7 M) (5-HT1A [2]): 73%

O=c1n(C/C=C/CN2CCN(c3cccc(Cl)c3)CC2)c2ccccc2n1CCN1CCOCC1 [Compound 348]
inhibition at 10 µM (5-HT1A [1]): 57% | IC50 (5-HT1A [2]): 3.5 nM

COCCn1c(=O)n(CCCCN2CCN(c3ccccc3OC)CC2)c2ccccc21 [Compound 19]
D4 Receptor Binding Assay % inhibition (10^−7 M) (D4 human receptors): 32% | 5-HT1A Receptor Binding Assay % inhibition (10^−7 M) (5-HT1A [2]): 69%

O=c1n(C/C=C\CN2CCN(c3ccccn3)CC2)c2ccccc2n1CCO [Compound 364]
D4 Receptor Binding Assay % inhibition (10^−7 M) (D4 human receptors): 36% | 5-HT1A Receptor Binding Assay % inhibition (10^−7 M) (5-HT1A [2]): 77%

CCNC(=O)OCCn1c(=O)n(CCCCN2CCN(c3cccc(Cl)c3)CC2)c2ccccc21 [Compound 79]
D4 Receptor Binding Assay % inhibition (10^−7 M) (D4 human receptors): 58% | 5-HT1A Receptor Binding Assay % inhibition (10^−7 M) (5-HT1A [2]): 86%

CCNC(=O)OCCn1c(=O)n(C/C=C/CN2CC=C(c3ccccc3)CC2)c2ccccc21 [Compound 421]
inhibition at 10 µM (5-HT1A [1]): 56% | IC50 (5-HT1A [2]): 0.66 nM

CS(=O)(=O)NCCn1c(=O)n(C/C=C\CN2CCc3c([nH]c4ccccc34)C2)c2ccccc21 [Compound 501]
D4 Receptor Binding Assay % inhibition (10^−7 M) (D4 human receptors): 63% | 5-HT1A Receptor Binding Assay % inhibition (10^−7 M) (5-HT1A [2]): 70%

O=c1n(C/C=C\CN2CC=C(c3ccccc3)CC2)c2ccccc2n1CCN1CCCCC1 [Compound 319]
D4 Receptor Binding Assay % inhibition (10^−7 M) (D4 human receptors): 70% | 5-HT1A Receptor Binding Assay % inhibition (10^−7 M) (5-HT1A [2]): 94%

O=c1n(C/C=C\CN2CCN(c3ccc(Cl)c(Cl)c3)CC2)c2ccccc2n1CCO [Compound 371]
D4 Receptor Binding Assay % inhibition (10^−7 M) (D4 human receptors): 95% | 5-HT1A Receptor Binding Assay % inhibition (10^−7 M) (5-HT1A [2]): 59%

O=c1n(CCN2CCCCC2)c2ccccc2n1CCN1CCN(c2cccc(C(F)(F)F)c2)CC1 [Compound 149]
D4 Receptor Binding Assay % inhibition (10^−7 M) (D4 human receptors): 35% | 5-HT1A Receptor Binding Assay % inhibition (10^−7 M) (5-HT1A [2]): 88%

O=c1n(C/C=C/CN2CCN(c3ncccn3)CC2)c2ccccc2n1CCN1CCCCC1 [Compound 332]
D4 Receptor Binding Assay % inhibition (10^−7 M) (D4 human receptors): 85% | 5-HT1A Receptor Binding Assay % inhibition (10^−7 M) (5-HT1A [2]): 78%

O=c1n(C/C=C/CN2CCN(c3ccccc3)CC2)c2ccccc2n1CCN1CCCCC1 [Compound 327]
D4 Receptor Binding Assay % inhibition (10^−7 M) (D4 human receptors): 74% | 5-HT1A Receptor Binding Assay % inhibition (10^−7 M) (5-HT1A [2]): 78%

COCCn1c(=O)n(CCCCN2CCN(c3ccccc3)CC2)c2ccccc21 [Compound 1]
D4 Receptor Binding Assay % inhibition (10^−7 M) (D4 human receptors): 38% | 5-HT1A Receptor Binding Assay % inhibition (10^−7 M) (5-HT1A [2]): 56%

COCCn1c(=O)n(CCCCN2CCN(c3ccc(Cl)c(Cl)c3)CC2)c2ccccc21 [Compound 11]
D4 Receptor Binding Assay % inhibition (10^−7 M) (D4 human receptors): 90% | 5-HT1A Receptor Binding Assay % inhibition (10^−7 M) (5-HT1A [2]): 48%
